Test results: PubChem BioAssay AID328 (DTP/NCI, 2004)
“And” between values parts separate entries of the source, which are not always exact repeats. Identical values can stand only once. Toxic doses and inconclusive results are not listed.

System: BDF1 mice, P388 leukemia ip, median survival T/C
Assay: NCI In Vivo Anticancer Drug Screen. Data for tumor model P388 Leukemia (intraperitoneal) in B6D2F1 (BDF1) mice
Conditions: endpoint: median survival time, higher = longer survival
In short: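 Survival ratio, drug arm over vehicle arm, in mice with a transplanted tumour.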

[1] = dose: 12.5 mg/kg/injection, schedule: Q01DX009 (ip), vehicle: Klucel (hydroxypropylcellulose) (HPC)
[2] = dose: 25.0 mg/kg/injection, schedule: Q01DX009 (ip), vehicle: Klucel (hydroxypropylcellulose) (HPC)
[3] = dose: 100.0 mg/kg/injection, schedule: Q04DX003 (ip), vehicle: saline with Tween-80
[4] = dose: 200.0 mg/kg/injection, schedule: Q04DX003 (ip), vehicle: saline with Tween-80
[5] = dose: 400.0 mg/kg/injection, schedule: Q04DX003 (ip), vehicle: saline with Tween-80
[6] = dose: 50.0 mg/kg/injection, schedule: Q01DX009 (ip), vehicle: saline with Tween-80
[7] = dose: 100.0 mg/kg/injection, schedule: Q01DX009 (ip), vehicle: saline with Tween-80
[8] = dose: 200.0 mg/kg/injection, schedule: Q01DX009 (ip), vehicle: saline with Tween-80
[9] = dose: 18.0 mg/kg/injection, schedule: Q01DX009 (ip), vehicle: saline
[10] = dose: 28.0 mg/kg/injection, schedule: Q01DX009 (ip), vehicle: saline
[11] = dose: 40.0 mg/kg/injection, schedule: Q01DX009 (ip), vehicle: saline
[12] = dose: 25.0 mg/kg/injection, schedule: Q01DX009 (ip), vehicle: water
[13] = dose: 50.0 mg/kg/injection, schedule: Q01DX009 (ip), vehicle: water
[14] = dose: 50.0 mg/kg/injection, schedule: Q04DX003 (ip), vehicle: water
[15] = dose: 100.0 mg/kg/injection, schedule: Q01DX009 (ip), vehicle: water
[16] = dose: 100.0 mg/kg/injection, schedule: Q04DX003 (ip), vehicle: water
[17] = dose: 200.0 mg/kg/injection, schedule: Q04DX003 (ip), vehicle: water

With Nc1cc2c(c(Cl)c1Br)-c1ccccc1C2=O the T/C [1] was 90 % of control, the T/C [2] was 86 % of control and the T/C (dose: 100.0 mg/kg/injection, schedule: Q01DX001 (ip), vehicle: other) was 86 % of control. The T/C (dose: 200.0 mg/kg/injection, schedule: Q01DX001 (ip), vehicle: other) was 104 % of control and the T/C (dose: 400.0 mg/kg/injection, schedule: Q01DX001 (ip), vehicle: other) was 104 % of control.
For CC1CCCC/C1=N/NC(N)=O (stereo not drawn), the T/C [1] was 95 % of control, the T/C [2] was 95 % of control and the T/C (dose: 50.0 mg/kg/injection, schedule: Q01DX009 (ip), vehicle: Klucel (hydroxypropylcellulose) (HPC)) was 91 % of control. For the same molecule, the T/C (dose: 100.0 mg/kg/injection, schedule: Q01DX009 (ip), vehicle: Klucel (hydroxypropylcellulose) (HPC)) was 104 % of control, the T/C (dose: 100.0 mg/kg/injection, schedule: Q04DX003 (ip), vehicle: Klucel (hydroxypropylcellulose) (HPC)) was 100 % of control and the T/C (dose: 200.0 mg/kg/injection, schedule: Q01DX009 (ip), vehicle: Klucel (hydroxypropylcellulose) (HPC)) was 86 % of control. The T/C (dose: 200.0 mg/kg/injection, schedule: Q04DX003 (ip), vehicle: Klucel (hydroxypropylcellulose) (HPC)) was 95 % of control and the T/C (dose: 400.0 mg/kg/injection, schedule: Q04DX003 (ip), vehicle: Klucel (hydroxypropylcellulose) (HPC)) was 95 % of control.
In the case of COc1ccc(NC2=CC(=O)C(=O)C=C2Nc2ccc(OC)cc2)cc1, the T/C (dose: 15.0 mg/kg/injection, schedule: Q01DX009 (ip), vehicle: saline with Tween-80) is reported as 93 % of control, the T/C (dose: 30.0 mg/kg/injection, schedule: Q01DX009 (ip), vehicle: saline with Tween-80) is reported as 93 % of control and the T/C (dose: 60.0 mg/kg/injection, schedule: Q01DX009 (ip), vehicle: saline with Tween-80) is reported as 91 % of control.
CCCC1(C)NC(=O)NC1=O (stereo not drawn) was tested, and the T/C [3] was 104 % of control, the T/C [4] was 113 % of control and the T/C [5] was 90 % of control.
C=CCOc1ccccc1OC was tested, and the T/C (dose: 25.0 mg/kg/injection, schedule: Q01DX009 (ip), vehicle: saline with Tween-80) was 100 % of control, the T/C [6] was 113 % of control and the T/C [7] was 107 % of control and 113 % of control. For the same molecule, the T/C [3] was 100 % of control, the T/C [8] was 100 % of control and the T/C [4] was 113 % of control.
With COc1cc(/C=N/OCc2cc3c(cc2Cl)OCO3)cc(OC)c1OC the T/C (dose: 100.0 mg/kg/injection, schedule: Q04DX003 (ip), vehicle: saline sonified) was 95 % of control, the T/C (dose: 200.0 mg/kg/injection, schedule: Q04DX003 (ip), vehicle: saline sonified) was 90 % of control and the T/C (dose: 400.0 mg/kg/injection, schedule: Q04DX003 (ip), vehicle: saline sonified) was 104 % of control.
In the case of CN(Cc1ccc(Nc2ccccc2)cc1)C1CCCCC1, the T/C (dose: 50.0 mg/kg/injection, schedule: Q01DX009 (ip), vehicle: other) is reported as 113 % of control and the T/C (dose: 100.0 mg/kg/injection, schedule: Q01DX009 (ip), vehicle: other) is reported as 160 % of control.
For CCOc1ccc(N2C(=O)CSC2=S)cc1, the T/C [6] was 104 % of control, the T/C (dose: 50.0 mg/kg/injection, schedule: Q04DX003 (ip), vehicle: saline with Tween-80) was 110 % of control and the T/C [7] was 100 % of control. The T/C [3] was 100 % of control, the T/C [8] was 95 % of control and the T/C [4] was 100 % of control.
With COC(=O)c1ccc(CSc2ccccc2NC(=S)Nc2cccc(SC)c2)o1 the T/C [6] was 90 % of control, the T/C [7] was 92 % of control and the T/C [8] was 90 % of control.
For COc1cc([C@@H]2c3cc4c(c(O)c3C[C@H]3COC(=O)[C@@H]32)OCO4)cc(OC)c1O, the T/C (dose: 0.12 mg/kg/injection, schedule: Q01DX010 (ip), vehicle: carboxymethylcellulose (CMC)) was 105 % of control, the T/C (dose: 0.25 mg/kg/injection, schedule: Q01DX010 (ip), vehicle: carboxymethylcellulose (CMC)) was 100 % of control and the T/C (dose: 0.5 mg/kg/injection, schedule: Q01DX001 (ip), vehicle: other) was 121 % of control. The T/C (dose: 0.5 mg/kg/injection, schedule: Q01DX010 (ip), vehicle: other) was 118 % of control, the T/C (dose: 1.0 mg/kg/injection, schedule: Q01DX010 (ip), vehicle: carboxymethylcellulose (CMC)) was 100 % of control and 123 % of control and the T/C (dose: 30.0 micrograms/kg/injection, schedule: Q01DX010 (ip), vehicle: other) was 110 % of control. The T/C (dose: 60.0 micrograms/kg/injection, schedule: Q01DX010 (ip), vehicle: other) was 110 % of control.
For CN(C)c1ccc(C2OC3(CCCCC3)C[N+]23CCCC3)cc1 (stereo not drawn), the T/C [9] was 110 % of control, the T/C (dose: 25.0 mg/kg/injection, schedule: Q04DX003 (ip), vehicle: saline) was 95 % of control and the T/C [10] was 105 % of control. The T/C [11] was 94 % of control, the T/C (dose: 50.0 mg/kg/injection, schedule: Q04DX003 (ip), vehicle: saline) was 100 % of control and the T/C (dose: 75.0 mg/kg/injection, schedule: Q01DX001 (ip), vehicle: Klucel (hydroxypropylcellulose) (HPC)) was 104 % of control. For the same molecule, the T/C (dose: 100.0 mg/kg/injection, schedule: Q04DX003 (ip), vehicle: saline) was 90 % of control and the T/C (dose: 150.0 mg/kg/injection, schedule: Q01DX001 (ip), vehicle: Klucel (hydroxypropylcellulose) (HPC)) was 100 % of control.
With Nc1ccc2cn[nH]c2c1 the T/C [12] was 99 % of control, the T/C [13] was 103 % of control and the T/C [14] was 103 % of control. The T/C [15] was 89 % of control, the T/C [16] was 116 % of control and the T/C (dose: 200.0 mg/kg/injection, schedule: Q01DX009 (ip), vehicle: water) was 94 % of control. For the same molecule, the T/C [17] was 110 % of control, the T/C (dose: 400.0 mg/kg/injection, schedule: Q01DX009 (ip), vehicle: water) was 94 % of control and the T/C (dose: 400.0 mg/kg/injection, schedule: Q04DX003 (ip), vehicle: water) was 116 % of control.
O=C(/C=C/c1cccc(Br)c1)NCC(O)CO (stereo not drawn) was tested, and the T/C [8] was 95 % of control and the T/C (dose: 400.0 mg/kg/injection, schedule: Q01DX009 (ip), vehicle: saline with Tween-80) was 87 % of control.
With NC(=O)NOCC1NC(=O)C(CONC(N)=O)NC1=O (stereo not drawn) the T/C (dose: 100.0 mg/kg/injection, schedule: Q01DX009 (ip), vehicle: saline) was 116 % of control and the T/C (dose: 400.0 mg/kg/injection, schedule: Q01DX009 (ip), vehicle: saline) was 105 % of control.
O=c1c2ccccc2c2c3c1cccc3c1cccc3c(=O)c4ccccc4c2c31 was tested, and the T/C [3] was 86 % of control, the T/C [4] was 90 % of control and the T/C [5] was 90 % of control.
For FC(F)(F)c1ccc2nc(CI)c(CI)nc2c1, the T/C (dose: 1.37 mg/kg/injection, schedule: Q01DX009 (ip), vehicle: saline) was 115 % of control, the T/C (dose: 1.5 mg/kg/injection, schedule: Q01DX009 (ip), vehicle: Klucel (hydroxypropylcellulose) (HPC)) was 105 % of control and the T/C (dose: 2.05 mg/kg/injection, schedule: Q01DX009 (ip), vehicle: saline) was 115 % of control. The T/C (dose: 3.0 mg/kg/injection, schedule: Q01DX009 (ip), vehicle: Klucel (hydroxypropylcellulose) (HPC)) was 105 % of control, the T/C (dose: 6.0 mg/kg/injection, schedule: Q01DX009 (ip), vehicle: Klucel (hydroxypropylcellulose) (HPC)) was 111 % of control and the T/C (dose: 12.0 mg/kg/injection, schedule: Q01DX009 (ip), vehicle: Klucel (hydroxypropylcellulose) (HPC)) was 122 % of control. The T/C (dose: 12.0 mg/kg/injection, schedule: Q01DX009 (ip), vehicle: saline) was 105 % of control, the T/C (dose: 12.0 mg/kg/injection, schedule: Q04DX003 (ip), vehicle: Klucel (hydroxypropylcellulose) (HPC)) was 118 % of control and the T/C (dose: 12.5 mg/kg/injection, schedule: Q01DX009 (ip), vehicle: saline with Tween-80) was 105 % of control. The T/C [9] was 100 % of control, the T/C (dose: 24.0 mg/kg/injection, schedule: Q01DX009 (ip), vehicle: Klucel (hydroxypropylcellulose) (HPC)) was 122 % of control and the T/C (dose: 25.0 mg/kg/injection, schedule: Q04DX003 (ip), vehicle: Klucel (hydroxypropylcellulose) (HPC)) was 109 % of control. The T/C (dose: 27.0 mg/kg/injection, schedule: Q01DX009 (ip), vehicle: saline) was 105 % of control, the T/C [10] was 100 % of control and the T/C [11] was 89 % of control. The T/C (dose: 48.0 mg/kg/injection, schedule: Q01DX009 (ip), vehicle: Klucel (hydroxypropylcellulose) (HPC)) was 122 % of control.
Nc1nc(N)c(N=O)c(Nc2ccc(I)cc2)n1 was tested, and the T/C [7] was 108 % of control, the T/C [3] was 112 % of control and the T/C [8] was 95 % of control. The T/C [4] was 108 % of control and the T/C [5] was 100 % of control.
For CCOC(=O)CC(C)C(Br)(C(=O)OCC)C(=O)OCC (stereo not drawn), the T/C [12] was 110 % of control, the T/C (dose: 25.0 mg/kg/injection, schedule: Q04DX003 (ip), vehicle: water) was 108 % of control and the T/C [13] was 121 % of control. The T/C [14] was 110 % of control, the T/C [15] was 114 % of control and the T/C [16] was 117 % of control. For the same molecule, the T/C [17] was 106 % of control.
